These are literature values, as cited in US20120076863A1, “NANOPARTICULATE STABILIZED ANTI-HYPERTENSIVE COMPOSITIONS” (Elan Pharma International Ltd., priority 2005, published 2012).

For data set [1] the following is noted: active metabolite of temocapril.

Where a name gives a salt, the structure may show the parent alone.

For the molecule `O=C(O)CN1C[C@@H](c2cccs2)SC[C@H](N[C@@H](CCc2ccccc2)C(=O)O)C1=O` [temocaprilat], the excretion route entry in data set [1] is reported as “excreted predominantly in bile”. With `CCOC(=O)[C@H](CCc1ccccc1)N[C@H]1CS[C@H](c2cccs2)CN(CC(=O)O)C1=O` [Temocapril hydrochloride, α-{(2S,6R)-6-[(1S)-1-ethoxy-carbonyl-3-phenyl-propyl]amino-5-oxo-2-(2-thienyl)perhydro-1,4-thiazepin-4yl}acetic acid hydrochloride], the solubility in water result was “only slightly soluble”.
